Assay results published in patent US12213482B2, “Fungicide enhancers effective for treating plants infected with fungal pathogens” (Board of Regents, The University of Texas System, priority 2015, dated 2025).

Key:
Format in all cases: cell-based
[1] = tested on: plant pathogenic fungi; assay: Fungal plate assays, apyrase inhibitors tested alone; details: apyrase inhibitor alone, no fungicide
Experimental: Standard antifungal susceptibility disk tests were performed to determine any potentiating effect of ectophosphatase inhibitors on the growth of pathogenic fungus. The pathogenic fungus wild-type strains were plated on PDA medium with paper-disks containing, fungicides at the center of the plate. […] Plates were incubated at 30° C. for 7-days (C. graminicola and S. sclerotiorum) or 12-days (B. cinerea, F. oxysporum and V. dahliae), depending on the growth rate of the fungi. Plates were photographed, and the zone of fungal growth inhibition was measured by using IMAGE J™ software (NIH, USA). All the tests were performed with 5 replicates. The studies were performed two times. Results were analyzed for significance using Student T-tests.

[2] = tested on: Botrytis cinerea; assay: Antifungal susceptibility disk test, fungicide disk plus apyrase inhibitor in plate; details: inhibitor 65 μM, 30° C., 12 days; for inhibitory effect on the growth of B. cinerea compared to myclobutanil alone: combined with myclobutanil (53.6 mM) disk, FIG. 2B; for inhibitory effect on the growth of B. cinerea compared to propiconazole alone: combined with propiconazole (418 mM) disk, FIG. 2C
Experimental: (§1) 2A. Copper Octanoate, 2B. Propiconazole, and 2C. Myclobutanil against the pathogenic fungi Botrytis cinerea. […] The equivalent volume of dimethylsulphoxide (DMSO) was added as a control. The studies were repeated two times with similar results. Error bars indicate standard deviations (n=5). The significances of the potency of fungicides are indicated: *** (Student's t-test, P<0.001); ** (Student's t-test, P<0.01) or *(Student's t-test, P<0.05). The plant pathogenic fungal strains Botrytis cinerea, Colletotrichum graminicola, Fusarium oxysporum, Sclerotiana sclerotiorum and Verticillium dahliae were obtained from the Institute for Plant Genomics & Biotechnology, Texas A & M University, USA Potato dextrose agar (PDA, Sigma-Aldrich) was routinely used for the growth of different pathogenic fungal strain. Ectophosphatase inhibitors NGXT191 (AI.1), AI.10, NGXT1913 (AI.13), and AI. 15 were used dal this study. The fungicides copper octanoate (C16H30CuO4), myclobutanil (C15H17ClN4) and propiconazole (C15H17Cl2N3O2) were used. The concentrations of these compounds used were copper octanoate (285 mM), myclobutanil (53.6 mM) and propiconazole (418 mM). Standard antifungal susceptibility disk tests were performed to determine any potentiating effect of ectophosphatase inhibitors on the growth of pathogenic fungus. The pathogenic fungus wild-type strains were plated on PDA medium with paper-disks containing, fungicides at the center of the plate. […] Plates were incubated at 30° C. for 7-days (C. graminicola and S. sclerotiorum) or 12-days (B. cinerea, F. oxysporum and V. dahliae), depending on the growth rate of the fungi. Plates were photographed, and the zone of fungal growth inhibition was measured by using IMAGE J™ software (NIH, USA). All the tests were performed with 5 replicates. The studies were performed two times. Results were analyzed for significance using Student T-tests.

[3] = tested on: Colletotrichum graminicola; assay: as above; details: inhibitor 65 μM, 30° C., 7 days; for inhibitory effect on the growth of C. graminicola compared to copper octanoate alone: combined with copper octanoate (285 mM) disk, FIG. 3A; for inhibitory effect on the growth of C. graminicola compared to myclobutanil alone: combined with myclobutanil (53.6 mM) disk, FIG. 3B
Experimental: as §1, with “Copper” for “2A. Copper”, “3B.” for “2B.”, “3C.” for “2C.”, “Colletotrichum graminicola.” for “Botrytis cinerea.”, “P<0.001; **(Student's” for “P<0.001); ** (Student's”

[4] = tested on: Verticillium dahliae; assay: as above; details: inhibitor 65 μM, 30° C., 12 days; for inhibitory effect on the growth of V. dahliae compared to copper octanoate alone: combined with copper octanoate (285 mM) disk, FIG. 6A; for inhibitory effect on the growth of V. dahliae compared to propiconazole alone: combined with propiconazole (418 mM) disk, FIG. 6C
Experimental: as §1, with “Copper” for “2A. Copper”, “Octanoate, 6B.” for “Octanoate, 2B.”, “and 6C.” for “and 2C.”, “fungi Verticillium dahliae.” for “fungi Botrytis cinerea.”, “t-test, P<0.00)); **(Student's” for “t-test, P<0.001); ** (Student's”, “*(Student's t test,” for “*(Student's t-test,”

Row | SMILES | fungicidal activity when tested alone [1] | inhibitory effect on the growth of B. cinerea compared to myclobutanil alone [2] | inhibitory effect on the growth of B. cinerea compared to propiconazole alone [2] | inhibitory effect on the growth of C. graminicola compared to copper octanoate alone [3] | inhibitory effect on the growth of C. graminicola compared to myclobutanil alone [3] | inhibitory effect on the growth of V. dahliae compared to copper octanoate alone [4] | inhibitory effect on the growth of V. dahliae compared to propiconazole alone [4] | inhibitory effect on the growth of V. dahliae compared to myclobutanil alone ([4]; combined with myclobutanil (53.6 mM) disk, FIG. 6B)
1 | Cc1cccc(NS(=O)(=O)c2ccc(-c3ccccc3)cc2)c1 [AI.1, N-(m-tolyl)-[1,1′-biphenyl]-4-sulfonamide] | no fungicidal activity was detected | significantly greater inhibitory effect | greater inhibitory effect | significantly greater inhibitory effect | significantly greater inhibitory effect | significantly greater inhibitory effect |  | 
2 | CCCCCCCSC(=O)c1cc2ccccc2oc1=O [AI.10, S-heptyl 2-oxo-2H-chromene-3-carbothioate] | no fungicidal activity was detected |  | greater inhibitory effect |  | significantly greater inhibitory effect | significantly greater inhibitory effect | significantly greater inhibitory effect | 
3 | O=C(Nc1cccc([N+](=O)[O-])c1)c1cccc(S(=O)(=O)Nc2ccc(Br)cc2)c1 [AI.13, 3-(N-(4-bromophenyl)sulfamoyl)-N-(3-nitrophenyl)benzamide] | no fungicidal activity was detected | significantly greater inhibitory effect |  | significantly greater inhibitory effect | significantly greater inhibitory effect | significantly greater inhibitory effect |  | 
4 | C/C(=N\NC(=O)c1cccc(C)c1)c1ccc2ccccc2c1 [AI.15, (E)-3-methyl-N′-(1-(naphthalen-2-yl)ethylidene)benzohydrazide] | no fungicidal activity was detected | significantly greater inhibitory effect | greater inhibitory effect |  | significantly greater inhibitory effect | significantly greater inhibitory effect | significantly greater inhibitory effect | significantly greater inhibitory effect
